From patent publication US20220062240A1, “METHODS OF TREATING CANCER USING A CLK INHIBITOR” (BioSplice Therapeutics, Inc., priority 2018, published 2022)
Where two headings read alike, the source gives them in different places.

What was measured:
Format in all cases: cell-based
[1] = tested on: lung cancer (4 cell lines); assay: CellTiter-Glo Viability Assay, lung cancer; conditions: Homo sapiens, inhibition of cancer cell proliferation
[2] = tested on: prostate cancer (5 cell lines); assay: CellTiter-Glo Viability Assay, prostate cancer; conditions: Homo sapiens
HCC1599 = assay: CellTiter-Glo Viability Assay, breast cancer; conditions: Homo sapiens, 96 h; HCC1599, breast cancer, four days; read-out: EC50
DU4475 = assay: CellTiter-Glo Viability Assay, breast cancer; conditions: Homo sapiens, DU-4475, 96 h; DU4475, breast cancer, four days; read-out: EC50
MDA-MB-231-Luc = assay: CellTiter-Glo Viability Assay, breast cancer; conditions: Homo sapiens, 96 h; MDA-MB-231-Luc, breast cancer, four days; read-out: EC50
T47D = assay: CellTiter-Glo Viability Assay, breast cancer; conditions: Homo sapiens, 96 h, breast cancer, four days, read-out: EC50
CAMA1 = assay: CellTiter-Glo Viability Assay, breast cancer; conditions: Homo sapiens, CAMA-1, 96 h; CAMA1, breast cancer, four days; read-out: EC50
MCF7 = assay: CellTiter-Glo Viability Assay, breast cancer; conditions: Homo sapiens, 96 h; MCF7, breast cancer, four days; read-out: EC50
ZR-75-1 = assay: CellTiter-Glo Viability Assay, breast cancer; conditions: Homo sapiens, 96 h; ZR-75-1, breast cancer, four days; read-out: EC50
BT-549 = assay: CellTiter-Glo Viability Assay, breast cancer; conditions: Homo sapiens, 96 h; BT-549, breast cancer, four days; read-out: EC50
[3] = tested on: colorectal cancer (6 cell lines); assay: CellTiter-Glo Viability Assay, colorectal cancer; conditions: Homo sapiens, inhibition of cancer cell proliferation
all 50 cell lines = assay: CellTiter-Glo Viability Assay, average across all cell lines; conditions: Homo sapiens; across all 50 cell lines; read-out: average EC50 for inhibition of cancer cell proliferation
Summary of the method: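 Proliferation of a multi-tissue human cancer line panel is assessed over four days at 37° C and 5% CO2, seeding 300-3,000 cells/well. Viability is quantified by CellTiter-Glo luminescence, and EC50 values are calculated.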

[4] = tested on: liver cancer (3 cell lines); assay: CellTiter-Glo Viability Assay, liver cancer; conditions: Homo sapiens, inhibition of cancer cell proliferation
[5] = tested on: pancreatic cancer (8 cell lines); assay: CellTiter-Glo Viability Assay, pancreatic cancer; conditions: Homo sapiens, inhibition of cancer cell proliferation
[6] = tested on: haematopoietic & lymphoid tumors (13 cell lines); assay: CellTiter-Glo Viability Assay, haematopoietic & lymphoid tumors; conditions: Homo sapiens, inhibition of cancer cell proliferation
[7] = tested on: ovarian cancer (4 cell lines); assay: CellTiter-Glo Viability Assay, ovarian cancer; conditions: Homo sapiens, inhibition of cancer cell proliferation
[8] = A-427, A427 cell line, read-out: Lung cancer, EC50 (μM) A427
[9] = HCC78, HCC-78 cell line, read-out: Lung cancer, EC50 (μM) HCC-78
[10] = NCI-H460 cell line, read-out: Lung cancer, EC50 (μM) NCI-H460
[11] = NCI-H522 cell line, read-out: Lung cancer, EC50 (μM) NCI-H522
[12] = DU-145, read-out: Prostate cancer EC50 Du-145
[13] = PC-3, PC3 cell line, inhibition of cancer cell proliferation, read-out: Prostate cancer EC50 PC3
[14] = 22Rv1 cell line, inhibition of cancer cell proliferation, read-out: Prostate cancer EC50 22Rv1
[15] = LNCap clone FGC cell line, inhibition of cancer cell proliferation, read-out: Prostate cancer EC50 LNCap clone FGC
[16] = VCaP (Sigma) cell line, inhibition of cancer cell proliferation, read-out: Prostate cancer EC50 VCaP (Sigma)
[17] = HCT-116, HCT116 cell line, read-out: Colorectal cancer, EC50 (μM) HCT116
[18] = HT-29, HT29 cell line, read-out: Colorectal cancer, EC50 (μM) HT29
[19] = SW-620, SW620 cell line, read-out: Colorectal cancer, EC50 (μM) SW620
[20] = DLD-1 cell line, read-out: Colorectal cancer, EC50 (μM) DLD-1
[21] = SW48 cell line, read-out: Colorectal cancer, EC50 (μM) SW48
[22] = SW480 cell line, read-out: Colorectal cancer, EC50 (μM) SW480
[23] = SNU-398, SNU398 cell line, read-out: Liver cancer, EC50 SNU398
[24] = HEPG2 cell line, read-out: Liver cancer, EC50 HEPG2
[25] = PLC/PRF/5 cell line, read-out: Liver cancer, EC50 PLC/PRF/5
[26] = BXPC-3, BxPC3 cell line, read-out: Pancreatic cancer, EC50 BxPC3
[27] = CAPAN-1, Capan1 cell line, read-out: Pancreatic cancer, EC50 Capan1
[28] = Capan-2, Capan2 cell line, read-out: Pancreatic cancer, EC50 Capan2
[29] = MIA PaCa-2 cell line, read-out: Pancreatic cancer, EC50 MIA PaCa-2
[30] = PANC 05.04 cell line, read-out: Pancreatic cancer, EC50 PANC 05.04
[31] = PANC-1 cell line, read-out: Pancreatic cancer, EC50 PANC-1
[32] = UPAFII cell line, read-out: Pancreatic cancer, EC50 UPAFII
[33] = DND41, DND-41 cell line, read-out: Haematopoietic & Lymphoid tumors, EC50 (μM) DND-41
[34] = MV4-11, MV-4-11 cell line, read-out: Haematopoietic & Lymphoid tumors, EC50 (μM) MV-4-11
[35] = Rec1, REC-1 cell line, read-out: Haematopoietic & Lymphoid tumors, EC50 (μM) REC-1
[36] = SU-DHL-4, SUDHL4 cell line, read-out: Haematopoietic & Lymphoid tumors, EC50 (μM) SUDHL4
[37] = HL-60 cell line, read-out: Haematopoietic & Lymphoid tumors, EC50 (μM) HL-60
[38] = JM1 cell line, read-out: Haematopoietic & Lymphoid tumors, EC50 (μM) JM1
[39] = JURKAT, Clone E6-1 cell line, read-out: Haematopoietic & Lymphoid tumors, EC50 (μM) JURKAT, Clone E6-1
[40] = JeKo-1 cell line, read-out: Haematopoietic & Lymphoid tumors, EC50 (μM) JeKo-1
[41] = KASUMI-1 cell line, read-out: Haematopoietic & Lymphoid tumors, EC50 (μM) KASUMI-1
[42] = Loucy cell line, read-out: Haematopoietic & Lymphoid tumors, EC50 (μM) Loucy
[43] = MOLT-4 cell line, read-out: Haematopoietic & Lymphoid tumors, EC50 (μM) MOLT-4
[44] = TF-1 cell line, read-out: Haematopoietic & Lymphoid tumors, EC50 (μM) TF-1
[45] = TOLEDO cell line, read-out: Haematopoietic & Lymphoid tumors, EC50 (μM) TOLEDO
[46] = PA-1, PA1 cell line, read-out: Ovarian cancer, EC50 (μM) PA1
[47] = TOV112D, TOV-112D cell line, read-out: Ovarian cancer, EC50 (μM) TOV-112D
[48] = OV-90 cell line, read-out: Ovarian cancer, EC50 (μM) OV-90
[49] = OVCAR-3 cell line, read-out: Ovarian cancer, EC50 (μM) OVCAR-3

Compound: CN(C)Cc1cncc(-c2cnc3[nH]nc(-c4nc5c(-c6cc(F)cc(N7CCOCC7)c6)cncc5[nH]4)c3c2)c1 [Compound 46]
- EC50 [1, 8]: 0.591 µM
- EC50 [1, 9]: 4.68 µM
- EC50 [1, 10]: > 10 µM
- EC50 [1, 11]: 0.417 µM
- EC50 [2, 12]: 2570 nM
- EC50 [2, 13]: 1180 nM
- EC50 [2, 14]: 968 nM
- EC50 [2, 15]: 7780 nM
- EC50 [2, 16]: 4540 nM
- EC50 (HCC1599): 1170 nM
- EC50 (DU4475): 4010 nM
- EC50 (MDA-MB-231-Luc): 2090 nM
- EC50 (T47D): 2360 nM
- EC50 (CAMA1): 2740 nM
- EC50 (MCF7): > 10000 nM
- EC50 (ZR-75-1): 1680 nM
- EC50 (BT-549): 1170 nM
- EC50 [3, 17]: 0.86 µM
- EC50 [3, 18]: 8.89 µM
- EC50 [3, 19]: 0.473 µM
- EC50 [3, 20]: 2.35 µM
- EC50 [3, 21]: 0.469 µM
- EC50 [3, 22]: 0.491 µM
- EC50 (all 50 cell lines): 2860 nM
- EC50 [4, 23]: 174 nM
- EC50 [4, 24]: 3590 nM
- EC50 [4, 25]: > 10000 nM
- EC50 [5, 26]: 6080 nM
- EC50 [5, 27]: 2370 nM
- EC50 [5, 28]: 4980 nM
- EC50 [5, 29]: 414 nM
- EC50 [5, 30]: 5400 nM
- EC50 [5, 31]: > 10000 nM
- EC50 [5, 32]: 1970 nM
- EC50 [6, 33]: 0.432 µM
- EC50 [6, 34]: 0.039 µM
- EC50 [6, 35]: 2.78 µM
- EC50 [6, 36]: 0.398 µM
- EC50 [6, 37]: 1.42 µM
- EC50 [6, 38]: 0.176 µM
- EC50 [6, 39]: 3.17 µM
- EC50 [6, 40]: 0.182 µM
- EC50 [6, 41]: 0.801 µM
- EC50 [6, 42]: 0.466 µM
- EC50 [6, 43]: 2.96 µM
- EC50 [6, 44]: 6.09 µM
- EC50 [6, 45]: 0.17 µM
- EC50 [7, 46]: 0.795 µM
- EC50 [7, 47]: 0.713 µM
- EC50 [7, 48]: 5.69 µM
- EC50 [7, 49]: 0.302 µM

Compound: c1cc2cc(c1)-c1cncc3[nH]c(nc13)-c1n[nH]c3ccc(cc13)-c1cncc(c1)CNC2 [Compound 54]
- EC50 [1, 8]: 0.04 µM
- EC50 [1, 9]: 0.225 µM
- EC50 [1, 10]: > 3.5 µM
- EC50 [1, 11]: 0.04 µM
- EC50 [2, 12]: 98 nM
- EC50 [2, 13]: 55 nM
- EC50 [2, 14]: 117 nM
- EC50 [2, 15]: 234 nM
- EC50 [2, 16]: 162 nM
- EC50 (HCC1599): 85 nM
- EC50 (DU4475): 57 nM
- EC50 (MDA-MB-231-Luc): 153 nM
- EC50 (T47D): 167 nM
- EC50 (CAMA1): 167 nM
- EC50 (MCF7): 794 nM
- EC50 (ZR-75-1): 145 nM
- EC50 (BT-549): 75 nM
- EC50 [3, 17]: 0.056 µM
- EC50 [3, 18]: 1.28 µM
- EC50 [3, 19]: 0.041 µM
- EC50 [3, 20]: 0.136 µM
- EC50 [3, 21]: 0.049 µM
- EC50 [3, 22]: 0.042 µM
- EC50 (all 50 cell lines): 453 nM
- EC50 [4, 23]: 21 nM
- EC50 [4, 24]: 377 nM
- EC50 [4, 25]: 1770 nM
- EC50 [5, 26]: 361 nM
- EC50 [5, 27]: 569 nM
- EC50 [5, 28]: 94 nM
- EC50 [5, 29]: 41 nM
- EC50 [5, 30]: 453 nM
- EC50 [5, 31]: 2680 nM
- EC50 [5, 32]: 259 nM
- EC50 [6, 33]: 0.031 µM
- EC50 [6, 34]: 0.005 µM
- EC50 [6, 35]: 0.109 µM
- EC50 [6, 36]: 0.036 µM
- EC50 [6, 37]: 0.121 µM
- EC50 [6, 38]: 0.026 µM
- EC50 [6, 39]: 0.17 µM
- EC50 [6, 40]: 0.017 µM
- EC50 [6, 41]: 0.058 µM
- EC50 [6, 42]: 0.041 µM
- EC50 [6, 43]: 0.254 µM
- EC50 [6, 44]: 0.108 µM
- EC50 [6, 45]: 0.022 µM
- EC50 [7, 46]: 0.147 µM
- EC50 [7, 47]: 0.065 µM
- EC50 [7, 48]: 0.532 µM
- EC50 [7, 49]: 0.037 µM
